pIC50: −log10 of the molar value.
Experiments:
AGS = assay: Cytotoxicity in human AGS cells assessed as reduction in cell viability incubated for 24 hrs by MTT assay; assay type: functional, cell-based
HepG2 [1] = assay: Cytotoxicity in human HepG2 cells assessed as reduction in cell viability incubated for 24 hrs by MTT assay; assay type: functional, cell-based; settings: HepG2, 24 h
HeLa [2] = assay: Cytotoxicity in human HeLa cells assessed as reduction in cell viability incubated for 24 hrs by MTT assay; assay type: functional, cell-based
[3] = Cytotoxicity in human HELF cells assessed as reduction in cell viability incubated for 24 hrs by MTT assay; assay type: cell-based
HeLa [4] = assay: Cytotoxicity in human HeLa cells assessed as reduction in cell viability incubated for 72 hrs by MTT assay; assay type: functional, cell-based
HT-29 [5] = assay: Cytotoxicity in human HT-29 cells assessed as reduction in cell viability incubated for 72 hrs by MTT assay; assay type: functional, cell-based; settings: HT-29, 72 h
HepG2 [6] = assay: Cytotoxicity in human HepG2 cells assessed as reduction in cell viability incubated for 72 hrs by MTT assay; assay type: functional, cell-based; settings: HepG2, 72 h
MDCK = assay: Cytotoxicity in canine MDCK cells assessed as reduction in cell viability incubated for 72 hrs by MTT assay; assay type: cell-based; settings: Canis lupus familiaris
EA.hy 926 = assay: Cytotoxicity in human EAhy926 cells assessed as reduction in cell viability incubated for 72 hrs by MTT assay; assay type: cell-based; settings: EA.hy 926, 72 h
H9c2 = assay: Cytotoxicity in rat H9c2 cells assessed as reduction in cell viability incubated for 72 hrs by MTT assay; assay type: cell-based; settings: H9c2, 72 h
MDA-MB-231 [7] = assay: Cytotoxicity in human MDA-MB-231 cells assessed as reduction in cell viability incubated for 24 hrs by MTT assay; assay type: functional, cell-based; settings: MDA-MB-231, 24 h
MCF7 [8] = assay: Cytotoxicity in human MCF7 cells assessed as reduction in cell viability incubated for 24 hrs by MTT assay; assay type: functional, cell-based; settings: MCF7, 24 h
TERT-RPE1 = assay: Cytotoxicity in human hTERT-RPE1 cells assessed as reduction in cell viability incubated for 24 hrs by MTT assay; assay type: functional, cell-based; settings: RPE-1, 24 h
HCT-116 = assay: Cytotoxicity in human HCT116 cells assessed as reduction in cell viability incubated for 96 hrs by SRB assay; assay type: functional, cell-based; settings: HCT-116, 96 h
HCT-8 = assay: Cytotoxicity in human HCT8 cells assessed as reduction in cell viability incubated for 96 hrs by SRB assay; assay type: functional, cell-based; settings: HCT-8, 96 h
HT-29 [9] = assay: Cytotoxicity in human HT-29 cells assessed as reduction in cell viability incubated for 96 hrs by SRB assay; assay type: functional, cell-based; settings: HT-29, 96 h
CT26 = assay: Cytotoxicity in mouse CT26 cells assessed as reduction in cell viability incubated for 96 hrs by SRB assay; assay type: functional, cell-based; settings: CT26, 96 h
PC-3 = assay: Cytotoxicity in human PC3 cells assessed as reduction in cell viability incubated for 96 hrs by SRB assay; assay type: functional, cell-based; settings: PC-3, 96 h
DU-145 = assay: Cytotoxicity in human DU145 cells assessed as reduction in cell viability incubated for 96 hrs by SRB assay; assay type: functional, cell-based; settings: DU-145, 96 h
MDA-MB-231 [10] = assay: Cytotoxicity in human MDA-MB-231 cells assessed as reduction in cell viability incubated for 96 hrs by SRB assay; assay type: functional, cell-based; settings: MDA-MB-231, 96 h
4T1 = assay: Cytotoxicity in mouse 4T1 cells assessed as reduction in cell viability incubated for 96 hrs by SRB assay; assay type: functional, cell-based; settings: 4T1, 96 h
Bel-7402 = assay: Cytotoxicity in human Bel7402 cells assessed as reduction in cell viability incubated for 72 hrs by MTT assay; assay type: functional, cell-based; settings: Bel-7402, 72 h
H4 = assay: Cytotoxicity in human H4 cells assessed as reduction in cell viability incubated for 72 hrs by MTT assay; assay type: functional, cell-based; settings: H4, 72 h
MCF7 [11] = assay: Cytotoxicity in human MCF7 cells assessed as reduction in cell viability incubated for 48 hrs by SRB assay; assay type: functional, cell-based; settings: MCF7, 48 h
MDA-MB-231 [12] = assay: Cytotoxicity in human MDA-MB-231 cells assessed as reduction in cell viability incubated for 48 hrs by SRB assay; assay type: functional; settings: MDA-MB-231, 48 h

| Compound | pIC50 (HeLa [4]) | pIC50 (HT-29 [5]) | pIC50 (HepG2 [6]) | pIC50 (MDCK) | pIC50 (EA.hy 926) | pIC50 (H9c2) | pIC50 (Bel-7402) | pIC50 (H4) | also measured |
| --- | --- | --- | --- | --- | --- | --- | --- | --- | --- |
| CC(=O)O[C@H]1CC[C@]2(C)[C@H]3CC=C4[C@@H]5[C@@H](C)[C@H](C)CC[C@]5(C(=O)NCCN)CC[C@@]4(C)[C@]3(C)CC[C@H]2C1(C)C | – | – | – | – | – | – | – | – | pIC50 (AGS): 4.84; pIC50 (HepG2 [1]): 4.79; pIC50 (HeLa [2]): 5.36; pIC50 [3]: 4.74 |
| C[C@H]1[C@H](C)CC[C@]2(C(=O)NCCN)CC[C@]3(C)C(=CC[C@@H]4[C@@]5(C)CC[C@H](O)C(C)(C)[C@@H]5CC[C@]43C)[C@H]12 | – | – | – | – | – | – | – | – | pIC50 (AGS): 4.75; pIC50 (HepG2 [1]): 4.86; pIC50 (HeLa [2]): 4.84; pIC50 [3]: 4.81 |
| COc1cc(/C=C/C(=O)O[C@H]2CC[C@]3(C)[C@H]4C(=O)C=C5[C@H]6C[C@@](C)(C(=O)O)CC[C@]6(C)CC[C@@]5(C)[C@]4(C)CC[C@H]3C2(C)C)cc(OC)c1OC | 4.51 | 4.59 | 4.66 | 4.56 | 4.51 | 4.32 | – | – | – |
| COc1ccc(OC)c(/C=C/C(=O)O[C@H]2CC[C@]3(C)[C@H]4C(=O)C=C5[C@H]6C[C@@](C)(C(=O)O)CC[C@]6(C)CC[C@@]5(C)[C@]4(C)CC[C@H]3C2(C)C)c1 | 4.55 | 4.58 | 4.59 | < 4.30 | 4.35 | < 4.30 | – | – | – |
| COc1ccccc1/C=C/C(=O)O[C@H]1CC[C@]2(C)[C@H]3C(=O)C=C4[C@H]5C[C@@](C)(C(=O)O)CC[C@]5(C)CC[C@@]4(C)[C@]3(C)CC[C@H]2C1(C)C | 4.61 | 4.65 | 4.49 | 4.64 | < 4.30 | < 4.30 | – | – | – |
| COc1cccc(/C=C/C(=O)O[C@H]2CC[C@]3(C)[C@H]4C(=O)C=C5[C@H]6C[C@@](C)(C(=O)O)CC[C@]6(C)CC[C@@]5(C)[C@]4(C)CC[C@H]3C2(C)C)c1 | 4.76 | 4.83 | 4.90 | 4.65 | 4.51 | < 4.30 | – | – | – |
| CC1(C)[C@@H](OC(=O)/C=C/c2ccccc2)CC[C@]2(C)[C@H]3C(=O)C=C4[C@H]5C[C@@](C)(C(=O)O)CC[C@]5(C)CC[C@@]4(C)[C@]3(C)CC[C@@H]12 | 4.63 | 4.65 | 4.61 | 4.65 | 4.54 | 4.34 | – | – | – |
| C[C@H]1[C@H](C)CC[C@]2(C(=O)NCCCCCCN)CC[C@]3(C)C(=CC[C@@H]4[C@@]5(C)CC[C@H](O)C(C)(C)[C@@H]5CC[C@]43C)[C@H]12 | – | – | – | – | – | – | – | – | pIC50 (AGS): 4.78; pIC50 (HepG2 [1]): 4.87; pIC50 (HeLa [2]): 4.88; pIC50 [3]: 4.91 |
| COc1cccc(/C=C/C(=O)O[C@H]2CC[C@]3(C)[C@H]4C(=O)C=C5[C@H]6C[C@@](C)(C(=O)O)CC[C@]6(C)CC[C@@]5(C)[C@]4(C)CC[C@H]3C2(C)C)c1OC | 4.65 | 4.61 | 4.61 | 4.47 | 4.60 | < 4.30 | – | – | – |
| COc1ccc(/C=C/C(=O)O[C@H]2CC[C@]3(C)[C@H]4C(=O)C=C5[C@H]6C[C@@](C)(C(=O)O)CC[C@]6(C)CC[C@@]5(C)[C@]4(C)CC[C@H]3C2(C)C)cc1 | 4.63 | 4.48 | 4.51 | 4.66 | < 4.30 | 4.44 | – | – | – |
| Cc1ccc(/C=C/C(=O)O[C@H]2CC[C@]3(C)[C@H]4C(=O)C=C5[C@H]6C[C@@](C)(C(=O)O)CC[C@]6(C)CC[C@@]5(C)[C@]4(C)CC[C@H]3C2(C)C)cc1 | 4.85 | 4.66 | 4.66 | 4.42 | 4.56 | < 4.30 | – | – | – |
| COc1ccc(/C=C/C(=O)O[C@H]2CC[C@]3(C)[C@H]4C(=O)C=C5[C@H]6C[C@@](C)(C(=O)O)CC[C@]6(C)CC[C@@]5(C)[C@]4(C)CC[C@H]3C2(C)C)c(OC)c1OC | 5.07 | 4.82 | 4.67 | 4.50 | 4.56 | < 4.30 | – | – | – |
| C[C@H]1[C@H](C)CC[C@]2(C(=O)NCCCCN)CC[C@]3(C)C(=CC[C@@H]4[C@@]5(C)CC[C@H](O)C(C)(C)[C@@H]5CC[C@]43C)[C@H]12 | – | – | – | – | – | – | – | – | pIC50 (AGS): 4.76; pIC50 (HepG2 [1]): 4.84; pIC50 (HeLa [2]): 4.84; pIC50 [3]: 4.82 |
| CC1(C)[C@@H](O)CC[C@]2(C)[C@H]3C(=O)C=C4[C@H]5C[C@@](C)(C(=O)O)CC[C@]5(C)CC[C@@]4(C)[C@]3(C)CC[C@@H]12 | < 4.30 | < 4.30 | < 4.30 | < 4.00 | < 4.00 | < 4.00 | – | – | pIC50 (MDA-MB-231 [7]): 4.07; pIC50 (MCF7 [8]): 4.12; pIC50 (TERT-RPE1): 4.20; pIC50 (HCT-116): 4.12; pIC50 (HCT-8): 4.09; pIC50 (HT-29 [9]): 4.11; pIC50 (CT26): 4.15; pIC50 (PC-3): 4.06; pIC50 (DU-145): 3.87; pIC50 (MDA-MB-231 [10]): 3.99; pIC50 (4T1): 4.02 |
| Cc1c(O)c(O)cc2c1C(c1c[nH]c3cc(Cl)ccc13)C=C1C2(C)CC[C@@]2(C)[C@H]3C[C@](C)(C(=O)O)CC[C@]3(C)CC[C@]12C (single isomer, unassigned) | – | – | – | – | – | – | 5.19 | 5.11 | – |
| COC(=O)[C@]1(C)CC[C@]2(C)CC[C@]3(C)C4=CC(c5c[nH]c6cc(C)ccc56)c5c(cc(OC)c(OC)c5C)C4(C)CC[C@@]3(C)[C@H]2C1 (single isomer, unassigned) | – | – | – | – | – | – | 7.70 | 5.10 | – |
| CC(=O)Nc1ccc(SC2C=C3C(C)(CC[C@@]4(C)[C@@H]5C[C@](C)(C(=O)O)CC[C@]5(C)CC[C@]34C)c3cc(OC(C)=O)c(OC(C)=O)c(C)c32)cc1 (single isomer, unassigned) | – | – | – | – | – | – | 6.34 | 6.46 | – |
| COC(=O)[C@]1(C)CC[C@]2(C)CC[C@]3(C)C4=CC(c5c[nH]c6ccc(OC)cc56)c5c(cc(OC)c(OC)c5C)C4(C)CC[C@@]3(C)[C@H]2C1 (single isomer, unassigned) | – | – | – | – | – | – | 6.29 | 5.34 | – |
| COc1ccc2[nH]cc(C3C=C4C(C)(CC[C@@]5(C)[C@H]6C[C@](C)(C(=O)O)CC[C@]6(C)CC[C@]45C)c4cc(O)c(O)c(C)c43)c2c1 (single isomer, unassigned) | – | – | – | – | – | – | 4.34 | 4.61 | – |
| Cc1ccc2c(C3C=C4C(C)(CC[C@@]5(C)[C@H]6C[C@](C)(C(=O)O)CC[C@]6(C)CC[C@]45C)c4cc(O)c(O)c(C)c43)c[nH]c2c1 (single isomer, unassigned) | – | – | – | – | – | – | 5.26 | 5.18 | – |
| CC(=O)Oc1cc2c(c(C)c1OC(C)=O)C(Sc1ccc(C)cc1)C=C1C2(C)CC[C@@]2(C)[C@@H]3C[C@](C)(C(=O)O)CC[C@]3(C)CC[C@]12C (single isomer, unassigned) | – | – | – | – | – | – | 6.35 | 6.43 | – |
| CC(=O)CC1C=C2C(C)(CC[C@@]3(C)[C@@H]4C[C@](C)(C(=O)O)CC[C@]4(C)CC[C@]23C)c2cc(OC(C)=O)c(OC(C)=O)c(C)c21 (single isomer, unassigned) | – | – | – | – | – | – | < 3.82 | < 3.82 | – |
| COC(=O)[C@]1(C)CC[C@]2(C)CC[C@]3(C)C4=CC(c5cn(C)c6cc(Cl)ccc56)c5c(cc(OC)c(OC)c5C)C4(C)CC[C@@]3(C)[C@H]2C1 (single isomer, unassigned) | – | – | – | – | – | – | 8.00 | 5.69 | – |
| COc1cccc2c1C(=O)c1c(O)c3c(c(O)c1C2=O)C[C@@](O)(C(=O)CO)C[C@@H]3O[C@H]1C[C@H](N)[C@H](O)[C@H](C)O1 [DOXORUBICIN] | – | – | – | – | – | – | – | – | pIC50 (MCF7 [8]): 6.31; pIC50 (TERT-RPE1): 5.56; GI50 (MCF7 [11]): 5.7 µM; GI50 (MDA-MB-231 [12]): 4.1 µM |

Reference: ChEMBL document CHEMBL4270495, “Oleanane-, ursane-, and quinone methide friedelane-type triterpenoid derivatives: Recent advances in cancer treatment” (Eur J Med Chem, 2017)
